US5886000A, “Anti-HIV agent” (Nissui Pharmaceutical Co., Ltd,, priority 1994, dated 1999)
Read-outs that look alike come from different tables or passages of the source.

Experiments:
CEM/LAV-1 = test: Anti-HIV activity in persistently infected CEM/LAV-1 cells; format: cell-based
Experimental: (§1) Predetermined concentrations of test agents were separately added to cells (2×10^5 cells/ml, 10 ml) persistently infected with HIV in a logarithmic growth phase to culture them for 96 hours, thereby counting the number of living cells and the number of killed cells every 24 hours by a trypan blue dye exclusion test to determine the cytotoxic effects of the test agents on the cells. A viral infectious titer (TCID50 /ml) in each of the culture solutions incubated for 96 hours was determined by 72-hour culture using, as an index, the giant cell formation of MT-4 cells. As a control, culture was conducted in a medium free of any agent. An anti-HIV activity (inhibition %) was determined in accordance with the following equation. [formula]

H9 /MN = test: Anti-HIV activity in persistently infected H9 /MN cells; format: cell-based
Experimental: as §1

Molt-4/IIIB = test: Anti-HIV activity in persistently infected Molt-4/IIIB cells; format: cell-based; settings: Human immunodeficiency virus 1, IIIB, read-out: Anti-HIV activities (inhibition %)
Experimental: as §1

U937 /RF = test: Anti-HIV activity in persistently infected U937 /RF cells; format: cell-based
Experimental: as §1

AIDS = settings: clinical use; cited from earlier work
Tat = biological target: T1, Tat (Human immunodeficiency virus type 1 group M subtype B, UniProt P04608); test: Tat-inhibiting effect (reporter plasmid and Tat activator plasmid cotransfected into COS-7 cells); format: cell-based, HIV
T1 construct: expressed in transfected cells; host or cells: COS-7 cells
T1 sequence (P04608 whole entry): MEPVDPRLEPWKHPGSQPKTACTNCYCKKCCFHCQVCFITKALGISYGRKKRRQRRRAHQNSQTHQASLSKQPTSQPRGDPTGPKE
Experimental: After a reporter plasmid and an activator plasmid of Tat were cotransfected into COS-7 cells by a DEAE dextran method to culture the cells at 37° C. for 24 hours in the presence of 5% CO2, the transfectant was added to 96-well microplates, in which a test agent had been placed in advance, in a proportion of 1×10^4 cells/well, followed by reculture at 37° C. for 3 days in the presence of 5% CO2. A supernatant (50 μl) of each of the cultures was then added to another 96-well microplate in which p-nitrophenyl phosphate as a substrate and a buffer had been placed, followed by incubation at 37° C. for 3 hours. The variation in absorbance at 405 nm due to p-nitrophenol formed was then measured to determine the presence of a Tat-inhibiting effect.

CEM cells = test: Cytotoxicity test, CEM cells (trypan blue dye exclusion); format: cell-based; settings: concentrations not greater than 500 μM
Experimental: (§2) Culture solutions (10 ml) of CEM and a strain CEM/LAV persistently producing HIV-1, both, in a logarithmic growth phase were prepared with media containing various concentrations of a test agent so as to give a concentration of 2.5×10^5 cells/ml, followed by culture at 37° C. in the presence of 5% CO2. After pipetting each cells culture solution every 24 hours, it was collected to count the number of living cells and the number of killed cells by a trypan blue dye exclusion test.

CEM/LAV cells = test: Cytotoxicity test, CEM/LAV cells persistently producing HIV-1 (trypan blue dye exclusion); format: cell-based; settings: 500 μM
Experimental: as §2

[1] = system: primarily infected CEM cells; test: Effect on growth of primarily infected CEM cells; format: cell-based, HIV-1; settings: concentrations not greater than 500 μM
Experimental: (§3) Cells were collected from a culture solution (1.0×10^6 cells/ml, 108 ml) of CEM in a logarithmic growth phase by centrifugation (260×g, 5 minutes). An HIV-1 virus solution (12×10^5 TCID50) was added to the cells to culture them at 37° C. for 24 hours in 180 ml of a medium, thereby adsorbing the virus thereon. After a culture supernatant containing the virus was then removed by centrifugation (260×g, 5 minutes), and the residue was washed three times with 50 ml of an RPMI-1640 basal medium under centrifugation (260×g, 5 minutes), media separately containing predetermined concentrations of test agents were used to prepare cell suspensions (1×10^5 cells/ml, 50 ml×2 sample for each concentration of the test agents). Each of these cell culture solutions was collected in 25-ml portions every 24 hours until 96 hours passed by. The collected solutions were subjected to SDS-PAGE, followed by western immunoblotting to detect virus-constituting proteins. Incidentally, an HIV-1 positive serum was used as a primary antibody.

[2] = system: HIV-1 in primarily infected CEM cells; test: Viral infectious titer in culture supernatant of primarily infected CEM cells; format: cell-based; settings: Human immunodeficiency virus 1, CCRF-CEM, % of a control
[3] = system: HIV-constituting proteins (p24, p41); test: Detection of HIV-constituting proteins by western immunoblotting, primarily infected CEM cells; format: cell-based, HIV-1; settings: 500 μM
Experimental: as §3

[4] = system: CEM/LAV-1, H9 /MN and Molt-4/IIIB cells; test: Anti-HIV activity, summary over CEM/LAV-1, H9 /MN and Molt-4/IIIB cells; format: cell-based; settings: 500 μM
Experimental: as §1

[5] = Human immunodeficiency virus 1, 50 μM, 96 hours, read-out: Anti-HIV activities (inhibition %)
[6] = Human immunodeficiency virus 1, 96 h, read-out: Anti-HIV activities (inhibition %)
[7] = Human immunodeficiency virus 1, U-937, 50 μM, 96 hours, read-out: Anti-HIV activities (inhibition %)
[8] = COS-7, control = 100, read-out: Specific activity (%) (Average ± SE)
[9] = Human immunodeficiency virus 1, 125 μM, 96 hours, read-out: Anti-HIV activities (inhibition %)
[10] = Human immunodeficiency virus 1, 500 μM, 96 hours, read-out: Anti-HIV activities (inhibition %)

Q: With `CC(=C(CCO)SSCC1CCCO1)N(C=O)Cc1cnc(C)nc1N` (stereo in doubt) [Fursultiamine, fursultiamine] as the molecule, how does the “anti-HIV activity (in words)” value (CEM/LAV-1; 50 μM) read?
A: marked anti-HIV activities

Q: And the inhibition at 50 µM (CEM/LAV-1; [5])?
A: 95%

Q: And the “anti-HIV activity (in words)” value (H9 /MN; 50 μM)?
A: marked anti-HIV activities

Q: What about the inhibition at 50 µM (H9 /MN; [6]) of the same molecule?
A: 96%

Q: What about the inhibition at 50 µM (Molt-4/IIIB; MOLT-4, 96 h) of the same molecule?
A: 0%

Q: And the “anti-HIV activity (in words)” value (U937 /RF; 50 μM)?
A: marked anti-HIV activities

Q: What about the inhibition at 50 µM (U937 /RF; Human immunodeficiency virus 1, U-937, 96 h, read-out: Anti-HIV activities (inhibition %)) of the same molecule?
A: 60%

Q: Which side effects (AIDS) does the source give for `Cc1cn([C@H]2C[C@H](N=[N+]=[N-])[C@@H](CO)O2)c(=O)[nH]c1=O` [AZT, azidothymidine] here?
A: headache, gastrointestinal disorders and a myelodepresant effect

Q: With `C=CCSSC(CCO)=C(C)N(C=O)Cc1cnc(C)nc1N` [Alitiamine, alitiamine] as the molecule, how does the “anti-HIV activity (in words)” value (CEM/LAV-1; 50 μM) read?
A: marked anti-HIV activities

Q: And the inhibition at 50 µM (H9 /MN; [5])?
A: 0%

Q: And the inhibition at 50 µM (Molt-4/IIIB; MOLT-4, 50 μM, 96 hours)?
A: 0%

Q: And the inhibition at 50 µM (U937 /RF; [7])?
A: 0%

Q: With `CC(=C(CCOC(=O)C(C)C)SSC(CCOC(=O)C(C)C)=C(C)N(C=O)Cc1cnc(C)nc1N)N(C=O)Cc1cnc(C)nc1N` [Bisibutiamine, bisibutiamine] as the molecule, how does the inhibition at 50 µM (CEM/LAV-1; [6]) read?
A: 0%

Q: And the “anti-HIV activity (in words)” value (H9 /MN; 50 μM)?
A: marked anti-HIV activities

Q: What about the inhibition at 50 µM (H9 /MN; [5]) of the same molecule?
A: 60%

Q: What about the inhibition at 50 µM (Molt-4/IIIB; MOLT-4, 50 μM, 96 hours) of the same molecule?
A: 0%

Q: And the inhibition at 50 µM (U937 /RF; [7])?
A: 0%

Q: Which activity at 250 µM (Tat; [8]) does the source give for `N[C@@H](CCC(=O)N[C@@H](CS)C(=O)NCC(=O)O)C(=O)O` [Glutathione] here?
A: 110 ± 17%

Q: With `CC(=O)N[C@@H](CS)C(=O)O` [N-Acetylcysteine] as the molecule, how does the activity at 125 µM (Tat; [8]) read?
A: 107 ± 13%

Q: What about the activity at 250 µM (Tat; [8]) of the same molecule?
A: 92 ± 8%

Q: And the activity at 500 µM (Tat; [8])?
A: 81.5 ± 5.7%

Q: Which activity at 125 µM (Tat; [8]) does the source give for `CC(=C(CCO)SSC(CCO)=C(C)N(C=O)Cc1cnc(C)nc1N)N(C=O)Cc1cnc(C)nc1N` [Thiamine disulfide, thiamine disulfide] here?
A: 92.3 ± 6.1%

Q: What about the activity at 250 µM (Tat; [8]) of the same molecule?
A: 64.4 ± 6.1%

Q: And the activity at 500 µM (Tat; [8])?
A: 36.1 ± 6.3%

Q: And the “inhibition of the activity of Tat” value (Tat; concentrations of 125-500 μM)?
A: inhibited the activity of Tat in dependence on dose

Q: And the “effect on growth and proliferation of CEM cells” value (CEM cells)?
A: did not affect the growth and proliferation

Q: What about the “effect on growth and proliferation of CEM/LAV cells” value (CEM/LAV cells) of the same molecule?
A: clearly inhibited the growth and proliferation

Q: What about the “number of killed cells” value (CEM/LAV cells) of the same molecule?
A: the number of killed cells did not increase

Q: And the “effect on growth of primarily infected CEM cells” value [1]?
A: did not affect the growth

Q: What about the activity at 500 µM [2] of the same molecule?
A: 0.3%

Q: And the “formation of p24 and p41 protein in culture supernatant” value [3]?
A: neither p24 protein nor p41 protein was formed

Q: And the inhibition at 125 µM (CEM/LAV-1; [9])?
A: 51%

Q: And the inhibition at 500 µM (CEM/LAV-1; [10])?
A: 90%

Q: What about the inhibition at 125 µM (H9 /MN; [9]) of the same molecule?
A: 90%

Q: And the inhibition at 500 µM (H9 /MN; [10])?
A: 99%

Q: What about the inhibition at 125 µM (Molt-4/IIIB; MOLT-4, 125 μM, 96 hours) of the same molecule?
A: 80%

Q: What about the inhibition at 500 µM (Molt-4/IIIB; MOLT-4, 500 μM, 96 hours) of the same molecule?
A: 97%

Q: What about the inhibition at 125 µM (U937 /RF; Human immunodeficiency virus 1, U-937, 125 μM, 96 hours, read-out: Anti-HIV activities (inhibition %)) of the same molecule?
A: 0%

Q: What about the inhibition at 500 µM (U937 /RF; Human immunodeficiency virus 1, U-937, 500 μM, 96 hours, read-out: Anti-HIV activities (inhibition %)) of the same molecule?
A: 80%

Q: And the “anti-HIV activity (in words)” value (U937 /RF; concentration not given)?
A: marked anti-HIV activities

Q: What about the “anti-HIV activity (in words)” value [4] of the same molecule?
A: marked anti-HIV activities

Q: Which results are given for `O=C(O)CCCCC1CCSS1` (stereo not drawn) [α-Lipoic acid]?
A: activity at 62.5 µM (Tat; COS-7, 62.5 μM, control = 100, read-out: Specific activity (%) (Average ± SE)): 78.8 ± 7.4%; activity at 125 µM (Tat; [8]): 41.6 ± 9.9%; activity at 250 µM (Tat; [8]): 17.5 ± 2.1%
